Measurements reported in patent publication US20210393636A1, “TREATMENT OF CNS AND DEVELOPMENTAL DISORDERS USING HIGH DOSE 5-FORMYL-(6S)-TETRAHYDROFOLATE” (priority 2019, published 2021).

Assays:
[1] = Tissue distribution of folates 24 h after oral administration of folate forms to rat pups, with and without FR Ab (Example 3); format: in vivo; conditions: antibody-treated pups vs pups without antibody
Protocol: To determine tissue distribution of orally administered folate forms in young rat pups and study the effect of folate receptor antibodies on this distribution. PND 21 rat pups weighing about 50 g were administered folate forms orally at a dose of 4 mg/kg. Animals were euthanized after 24 h and tissues collected for analyzing total methylfolate in each tissue to provide a measure of normal distribution.

[2] = parenteral 5 mg twice weekly or oral 0.5-20 mg/kg/day; cited from earlier work
in vivo = conditions: rat, in vivo, po, 4 mg/kg
Protocol: For this study, 4 mg/kg folate was administered as a single dose to 250-300 g male Wistar rats. […] For each form of folate 4 time points of 30 min, 1 h, 2 h and 4 h were evaluated. For each time point 2 rats were used. The folate form dissolved in 0.5 ml buffered saline was administered orally using a blunt needle attached to a 1 ml syringe. The rats were euthanized by CO2 inhalation.
Blood was drawn cardiac puncture, allowed to clot for 30 min, serum separated, diluted in equal volume of 4% ascorbate pH 7.2 and kept frozen at −20 C. Folate forms in the serum was determined by HPLC and the peaks were quantified by comparing to known standards as described below.
Folate standards (5-MTHF, FA, THF and Formyl-THF) and 13C-labeled stable isotope internal standards (13C5-5-MTHF, 13C5-FA and 13C-Formyl-THF) were obtained from Schircks Laboratories (Switzerland). Formic acid, ascorbic acid and dithiothreitol (DTT) were obtained from Fluka and Optima LC-MS grade methanol from Fisher Scientific. Stock standards for each folate metabolite and internal standards were prepared as 1 mmol/L solutions in water containing 2 mg/mL ascorbic acid and stored at −80° C. Microtiter plates used for were purchased from NUNC.
Liquid chromatography electrospray ionization mass spectrometry (LC-ESI-MS/MS) analysis of plasma 5-MTHF, FA, THF, Formyl-THF was performed on a Sciex 5500QTRAP mass spectrometer (Foster City, Calif., USA) coupled with a Shimadzu ultra-high pressure Nexera chromatograph system (Kyoto, Japan). The MS/MS experiments were performed under positive electrospray ionization (+ESI) with multiple-reaction monitoring (MRM) using a Turbolon Spray electrospray source operating at a voltage of 5.5 kV and desolvation temperature of 500° C. The calibration curve was prepared in water containing 2 mg/mL ascorbic acid over a range of 12.5-400 nmol/L for each folate analyte.
Sample preparation involved combining 50 µl of blank, standard, control or sample with 10μ1 62.5 mM dithiothreitol, 20 mg/ml ascorbic acid and 2.5 μM 13C5-5-MTHF, 13C5-FA, 13C-Formyl-THF in 1.5 mL Eppendorf tubes, mixed by vortex and incubated for 10 minutes at room temperature in the dark. Next, samples were deproteinized with 5 volumes of methanol containing 2 mg/ml of ascorbic acid and vortexed and centrifuged at 14800 rpm for 10 minutes. Supernatant was loaded in a 96-well microtiter plate for analysis. The samples were analyzed following injection of 10 μL of extract on a Synergi Hydro 4μ 150×3 mm with a 4×2 mm SecurityGuard column (Phenomenex, Calif., USA) maintained at 40° C. (Phenomenex) and eluted in a gradient with buffer A (100% water with 0.1% formic acid) and buffer B (100% Methanol with 0.1% formic acid). The flow rate was 0.5 mL/min, with a gradient over a total run time of 6 min: 0.0-2.0 min, 0-100% B; 2.5 min, 100% B; 2.6-6.0 min, 0% B.
Total analytical analysis, including column re-equilibration, was 6 minutes. Eluent flow from the column was diverted to waste at the beginning and end of each run and was only directed to the source for the period from 1.5-3.5 minutes. The LC-MS/MS data was acquired and processed using Analyst 1.5.2 software (Sciex).
Values reported include both D- and L-forms.

[3] = Tissue distribution of folates 24 h after oral administration of folate forms (Example 2); format: in vivo, rats; conditions: non-pregnant rats without folate receptor antibody
Protocol: This study evaluated the difference in folate absorption in non-pregnant rats, pregnant rats, pregnant rats injected with a control antibody, and pregnant rats injected with antibody to the folate receptor alpha. Eight (8) rats were assigned to each group for a total of thirty-two (32) rats. Two rats within each group were administered a single oral dose of PGA, 5-methyl-(6S)-THF, folinic acid or 5-formyl-(6S)-THF as a liquid solution and sacrificed at 24-hours to evaluate folate absorption patterns. The total amount of each form of folate administered to each rat was 4 mg/kg.
Additional analyses were performed in various tissues of the pregnant and non-pregnant rats. For tissues other than serum, each tissue was collected, weighed and stored at −20 C. For the folate assay each tissue was suspended in 3 volumes of phosphate buffer containing 2% ascorbic acid pH 7.4 and homogenized using a polytron probe. An aliquot of this homogenate was diluted 10 fold in PO4 buffer PH 5.5 containing 0.2% ascorbic acid, in a glass tube, sealed and placed in a boiling water bath for 10 min. The tube was cooled to room temperature, precipitate removed by centrifugation and the clear supernatant assayed for folate. Brain concentrations were derived from cortex and cerebellum.

[4] = 25 mg liquid elixir, oral; cited from earlier work

Nc1nc2c(c(=O)[nH]1)N(C=O)C(CNc1ccc(C(=O)N[C@@H](CCC(=O)O)C(=O)O)cc1)CN2 (some centres unmarked) [Folinic acid, 5-formyl-tetrahydrofolate]
change of folates in the brain on antibody administration [1]: an increase in folates in the brain is observed | tolerability [2]: tolerated | concentration at 0.5 h (in vivo; male, Wistar): 80.1 ng/mL | concentration at 1 h (in vivo; male, Wistar): 55.9 ng/mL | concentration at 2 h (in vivo; male, Wistar): 27.5 ng/mL | concentration at 4 h (in vivo; male, Wistar): 21.7 ng/mL | 5-MTHF (in vivo; male, Wistar, 0.5 h): 109.7 ng/mL | THF (in vivo; male, Wistar, 0.5 h): 5.5 ng/mL | Total Uptake (in vivo; male, Wistar, 0.5 h): 195.3 ng/mL | 5-MTHF (in vivo; male, Wistar, 1 h): 115.7 ng/mL | THF (in vivo; male, Wistar, 1 h): 5.9 ng/mL | Total Uptake (in vivo; male, Wistar, 1 h): 177.4 ng/mL | 5-MTHF (in vivo; male, Wistar, 2 h): 103.3 ng/mL | THF (in vivo; male, Wistar, 2 h): 5.1 ng/mL | Total Uptake (in vivo; male, Wistar, 2 h): 135.9 ng/mL | 5-MTHF (in vivo; male, Wistar, 4 h): 120.7 ng/mL | THF (in vivo; male, Wistar, 4 h): 7.2 ng/mL | Total Uptake (in vivo; male, Wistar, 4 h): 149.6 ng/mL | THF concentration relative to an equal dose of 5-formyl-6S-THF (in vivo): less than one fifth | tissue uptake of the unnatural D-isomer in ovary, brain, cerebellum and cortex [3]: significant | AUC0-24h, 5-Formyl-THF (Strep. faecalis activity) [4]: 135 ± 80 ng·h/mL | AUC0-24h, 5-Methyl-THF (arithmetic difference) [4]: 1929 ± 542 ng·h/mL | AUC0-24h, Total folates (l-casei activity) [4]: 2063 ± 587 ng·h/mL | AUC0-inf, 5-Formyl-THF (Strep. faecalis activity) [4]: 140 ± 81 ng·h/mL | AUC0-inf, 5-Methyl-THF (arithmetic difference) [4]: 2012 ± 567 ng·h/mL | AUC0-inf, Total folates (l-casei activity) [4]: 2149 ± 612 ng·h/mL | Cmax, 5-Formyl-THF (Strep. faecalis activity) [4]: 51 ± 50 ng/mL | Cmax, 5-Methyl-THF (arithmetic difference) [4]: 367 ± 87 ng/mL | Cmax, Total folates (l-casei activity) [4]: 393 ± 96 ng/mL | t1/2, 5-Formyl-THF (Strep. faecalis activity) [4]: 9.5 ± 4.6 h | t1/2, 5-Methyl-THF (arithmetic difference) [4]: 6.0 ± 1.9 h | t1/2, Total folates (l-casei activity) [4]: 6.0 ± 1.9 h | tmax, 5-Formyl-THF (Strep. faecalis activity) [4]: 73 ± 35 min | tmax, 5-Methyl-THF (arithmetic difference) [4]: 142 ± 29 min | tmax, Total folates (l-casei activity) [4]: 140 ± 32 min
